Test results taken from ChEMBL document CHEMBL2074183, “Purification of the human apical conjugate export pump MRP2 reconstitution and functional characterization as substrate-stimulated ATPase” (Eur J Biochem, 1999).

Biological target: ATP-binding cassette sub-family C member 2 (Homo sapiens, UniProt Q92887)
Assay: TP_TRANSPORTER: ATP hydrolysis in MRP2 reconstituted into proteoliposome
Type: functional, subcellular

ATP-binding cassette sub-family C member 2, sequence (Q92887 whole entry): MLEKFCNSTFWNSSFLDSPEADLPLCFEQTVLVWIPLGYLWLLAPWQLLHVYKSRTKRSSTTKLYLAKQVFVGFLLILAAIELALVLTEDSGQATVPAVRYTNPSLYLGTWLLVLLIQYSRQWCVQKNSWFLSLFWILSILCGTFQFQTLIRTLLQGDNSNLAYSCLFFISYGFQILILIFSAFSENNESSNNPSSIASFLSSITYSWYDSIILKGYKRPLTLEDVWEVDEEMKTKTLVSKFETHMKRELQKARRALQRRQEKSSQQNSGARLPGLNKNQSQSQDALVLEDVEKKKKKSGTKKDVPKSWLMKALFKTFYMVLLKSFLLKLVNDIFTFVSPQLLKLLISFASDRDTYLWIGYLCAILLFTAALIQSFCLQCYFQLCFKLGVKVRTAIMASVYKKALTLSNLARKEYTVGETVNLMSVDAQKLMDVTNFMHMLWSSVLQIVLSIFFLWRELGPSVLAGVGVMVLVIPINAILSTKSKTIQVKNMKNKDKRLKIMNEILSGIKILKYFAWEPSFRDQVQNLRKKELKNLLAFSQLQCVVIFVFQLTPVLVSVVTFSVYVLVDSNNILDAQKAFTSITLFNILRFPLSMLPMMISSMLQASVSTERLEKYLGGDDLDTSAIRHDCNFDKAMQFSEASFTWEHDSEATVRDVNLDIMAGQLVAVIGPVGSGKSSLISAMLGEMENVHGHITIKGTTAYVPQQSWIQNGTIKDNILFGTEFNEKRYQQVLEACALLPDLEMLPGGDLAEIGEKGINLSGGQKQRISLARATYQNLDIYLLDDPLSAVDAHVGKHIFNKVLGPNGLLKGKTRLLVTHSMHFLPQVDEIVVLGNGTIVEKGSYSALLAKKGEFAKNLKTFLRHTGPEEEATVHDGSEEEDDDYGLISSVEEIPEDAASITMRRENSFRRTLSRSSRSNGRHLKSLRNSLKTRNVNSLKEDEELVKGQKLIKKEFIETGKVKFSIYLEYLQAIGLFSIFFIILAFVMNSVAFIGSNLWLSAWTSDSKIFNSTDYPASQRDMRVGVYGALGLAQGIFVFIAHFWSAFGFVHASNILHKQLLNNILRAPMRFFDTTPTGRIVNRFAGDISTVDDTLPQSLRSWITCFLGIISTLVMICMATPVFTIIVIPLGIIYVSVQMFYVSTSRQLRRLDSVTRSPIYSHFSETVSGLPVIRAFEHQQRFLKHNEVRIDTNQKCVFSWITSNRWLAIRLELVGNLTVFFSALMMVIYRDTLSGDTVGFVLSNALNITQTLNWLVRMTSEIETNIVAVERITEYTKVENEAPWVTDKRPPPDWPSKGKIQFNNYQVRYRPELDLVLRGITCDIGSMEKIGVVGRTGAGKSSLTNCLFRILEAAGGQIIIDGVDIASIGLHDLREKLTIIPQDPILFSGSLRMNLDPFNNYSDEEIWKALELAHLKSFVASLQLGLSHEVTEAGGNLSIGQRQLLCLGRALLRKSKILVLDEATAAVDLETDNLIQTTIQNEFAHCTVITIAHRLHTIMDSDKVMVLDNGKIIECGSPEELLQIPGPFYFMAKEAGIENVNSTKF

Row | Activity | SMILES
1 | substrate [+] | CCCCCCCCCCSC[C@H](NC(=O)CC[C@H](N)C(=O)O)C(=O)NCC(=O)O
2 | substrate [+] | N[C@@H](CCC(=O)N[C@@H](CS)C(=O)NCC(=O)O)C(=O)O [GLUTATHIONE]
